Measurements from the supplement of paper PMC10307832.

What was measured:
Assay in all cases: relative viability (nuclei count vs DMSO), 5 days (fraction); higher = more cells survive
[1] = tested on: BEN
Summary of the method: (§1)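 For relative viability, nuclei counts in treated wells were divided by those in vehicle wells. Lung cancer cell lines had been pin-tool dosed in 1536-well plates the day after seeding and cultured for 5 days, then fixed and stained in one step (final 0.05% Triton X-100, 1% formaldehyde, 1 ug/ml Hoechst) and imaged at 4×. Doses were one drug alone or a fixed anchor-drug dose plus five library-drug doses (not always all listed) in √10 steps, and values are duplicate-plate medians.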

[2] = tested on: EMC-BAC-2
Summary of the method: as §1

[3] = tested on: HCC-366
Summary of the method: as §1

[4] = tested on: HCC-78
Summary of the method: as §1

[5] = tested on: LC-2-ad
Summary of the method: as §1

[6] = tested on: LXF-289
Summary of the method: as §1

[7] = tested on: NCI-H1563
Summary of the method: as §1

[8] = tested on: NCI-H1623
Summary of the method: as §1

[9] = tested on: NCI-H1650
Summary of the method: as §1

[10] = tested on: NCI-H1666
Summary of the method: as §1

[11] = tested on: NCI-H1915
Summary of the method: as §1

[12] = tested on: NCI-H1944
Summary of the method: as §1

[13] = tested on: NCI-H1993
Summary of the method: as §1

[14] = tested on: NCI-H2085
Summary of the method: as §1

[15] = tested on: NCI-H2087
Summary of the method: as §1

[16] = tested on: NCI-H2170
Summary of the method: as §1

[17] = tested on: NCI-H2228
Summary of the method: as §1

[18] = tested on: NCI-H2347
Summary of the method: as §1

[19] = tested on: NCI-H358
Summary of the method: as §1

[20] = tested on: NCI-H650
Summary of the method: as §1

[21] = tested on: NCI-H727
Summary of the method: as §1

[22] = tested on: PC-14
Summary of the method: as §1

[23] = tested on: RERF-LC-KJ
Summary of the method: as §1

[24] = tested on: SW 900
Summary of the method: as §1

Nc1cccc2c1CN(C1CCC(=O)NC1=O)C2=O (stereo unspecified) [Lenalidomide] + Cc1nc(Nc2ncc(C(=O)Nc3c(C)cccc3Cl)s2)cc(N2CCN(CCO)CC2)n1 [Dasatinib] (partner 0.075 µM)
relative viability ([1]; first compound 0.253 µM): 0.385 | relative viability ([1]; first compound 0.8 µM): 0.258 | relative viability ([1]; first compound 2.53 µM): 0.293 | relative viability ([1]; first compound 8 µM): 0.241 | relative viability ([2]; first compound 0.253 µM): 0.319 | relative viability ([2]; first compound 0.8 µM): 0.28 | relative viability ([2]; first compound 2.53 µM): 0.33 | relative viability ([2]; first compound 8 µM): 0.256 | relative viability ([3]; first compound 0.253 µM): 0.661 | relative viability ([3]; first compound 0.8 µM): 0.622 | relative viability ([3]; first compound 2.53 µM): 0.752 | relative viability ([3]; first compound 8 µM): 0.334 | relative viability ([4]; first compound 0.253 µM): 0.52 | relative viability ([4]; first compound 0.8 µM): 0.371 | relative viability ([4]; first compound 2.53 µM): 0.465 | relative viability ([4]; first compound 8 µM): 0.308 | relative viability ([5]; first compound 0.253 µM): 0.49 | relative viability ([5]; first compound 2.53 µM): 0.727 | relative viability ([5]; first compound 8 µM): 0.395 | relative viability ([6]; first compound 0.253 µM): 0.235 | relative viability ([6]; first compound 0.8 µM): 0.347 | relative viability ([6]; first compound 2.53 µM): 0.234 | relative viability ([6]; first compound 8 µM): 0.213 | relative viability ([7]; first compound 0.253 µM): 0.477 | relative viability ([7]; first compound 0.8 µM): 0.43 | relative viability ([7]; first compound 2.53 µM): 0.499 | relative viability ([7]; first compound 8 µM): 0.464 | relative viability ([8]; first compound 0.253 µM): 0.51 | relative viability ([8]; first compound 0.8 µM): 0.466 | relative viability ([8]; first compound 2.53 µM): 0.523 | relative viability ([8]; first compound 8 µM): 0.497 | relative viability ([9]; first compound 0.8 µM): 0.241 | relative viability ([9]; first compound 2.53 µM): 0.316 | relative viability ([9]; first compound 8 µM): 0.303 | relative viability ([10]; first compound 0.253 µM): 0.858 | relative viability ([10]; first compound 2.53 µM): 0.849 | relative viability ([10]; first compound 8 µM): 0.783 | relative viability ([11]; first compound 0.253 µM): 0.321 | relative viability ([11]; first compound 0.8 µM): 0.329 | relative viability ([11]; first compound 2.53 µM): 0.301 | relative viability ([11]; first compound 8 µM): 0.245 | relative viability ([12]; first compound 0.253 µM): 0.239 | relative viability ([12]; first compound 0.8 µM): 0.251 | relative viability ([12]; first compound 2.53 µM): 0.208 | relative viability ([12]; first compound 8 µM): 0.173 | relative viability ([13]; first compound 0.253 µM): 0.498 | relative viability ([13]; first compound 0.8 µM): 0.583 | relative viability ([13]; first compound 2.53 µM): 0.609 | relative viability ([13]; first compound 8 µM): 0.443 | relative viability ([14]; first compound 0.253 µM): 0.253 | relative viability ([14]; first compound 0.8 µM): 0.259 | relative viability ([14]; first compound 2.53 µM): 0.243 | relative viability ([14]; first compound 8 µM): 0.214 | relative viability ([15]; first compound 0.253 µM): 0.865 | relative viability ([15]; first compound 0.8 µM): 0.851 | relative viability ([15]; first compound 2.53 µM): 0.928 | relative viability ([15]; first compound 8 µM): 0.829 | relative viability ([16]; first compound 0.253 µM): 0.547 | relative viability ([16]; first compound 0.8 µM): 0.47 | relative viability ([16]; first compound 2.53 µM): 0.571 | relative viability ([16]; first compound 8 µM): 0.454 | relative viability ([17]; first compound 0.253 µM): 0.444 | relative viability ([17]; first compound 0.8 µM): 0.58 | relative viability ([17]; first compound 2.53 µM): 0.562 | relative viability ([17]; first compound 8 µM): 0.405 | relative viability ([18]; first compound 0.253 µM): 0.264 | relative viability ([18]; first compound 0.8 µM): 0.365 | relative viability ([18]; first compound 2.53 µM): 0.286 | relative viability ([18]; first compound 8 µM): 0.214 | relative viability ([19]; first compound 0.253 µM): 0.196 | relative viability ([19]; first compound 0.8 µM): 0.235 | relative viability ([19]; first compound 2.53 µM): 0.19 | relative viability ([19]; first compound 8 µM): 0.165 | relative viability ([20]; first compound 0.253 µM): 0.459 | relative viability ([20]; first compound 2.53 µM): 0.474 | relative viability ([20]; first compound 8 µM): 0.355 | relative viability ([21]; first compound 0.253 µM): 0.357 | relative viability ([21]; first compound 0.8 µM): 0.326 | relative viability ([21]; first compound 2.53 µM): 0.335 | relative viability ([21]; first compound 8 µM): 0.384 | relative viability ([22]; first compound 0.253 µM): 0.236 | relative viability ([22]; first compound 0.8 µM): 0.28 | relative viability ([22]; first compound 2.53 µM): 0.281 | relative viability ([22]; first compound 8 µM): 0.304 | relative viability ([23]; first compound 0.253 µM): 0.777 | relative viability ([23]; first compound 0.8 µM): 0.746 | relative viability ([23]; first compound 2.53 µM): 0.828 | relative viability ([23]; first compound 8 µM): 0.793 | relative viability ([24]; first compound 0.253 µM): 0.498 | relative viability ([24]; first compound 2.53 µM): 0.606 | relative viability ([24]; first compound 8 µM): 0.828
